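Exposure lasted 48 hours, with cells grown in 96-well plates and compounds tested at five concentrations. The concentration for full growth arrest is given as TGI.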
Legend:
Assay in all cases: NCI anticancer screen, dose series, 48 h
SF-295 CNS = test system: SF-295 CNS
MDA-MB-231 breast = test system: MDA-MB-231 breast
CCRF-CEM leukemia = test system: CCRF-CEM leukemia
HL-60(TB) leukemia = test system: HL-60(TB) leukemia
HCT-116 colon = test system: HCT-116 colon
HOP-62 NSCLC = test system: HOP-62 NSCLC
HS 578T breast = test system: HS 578T breast
SNB-75 CNS = test system: SNB-75 CNS
MDA-N = test system: MDA-N
EKVX NSCLC = test system: EKVX NSCLC
MALME-3M melanoma = test system: MALME-3M melanoma
KM12 colon = test system: KM12 colon
MOLT-4 leukemia = test system: MOLT-4 leukemia
SN12C renal = test system: SN12C renal
PC-3 prostate = test system: PC-3 prostate
SR leukemia = test system: SR leukemia
786-0 renal = test system: 786-0 renal
DU-145 prostate = test system: DU-145 prostate
UACC-257 melanoma = test system: UACC-257 melanoma
LOX IMVI melanoma = test system: LOX IMVI melanoma
NCI-H226 lung = test system: NCI-H226 lung
NCI-H23 lung = test system: NCI-H23 lung
SK-OV-3 ovarian = test system: SK-OV-3 ovarian
MDA-MB-435 = test system: MDA-MB-435
RPMI-8226 leukemia = test system: RPMI-8226 leukemia
HCT-15 colon = test system: HCT-15 colon
OVCAR-8 ovarian = test system: OVCAR-8 ovarian
MCF7 breast = test system: MCF7 breast
HT29 colon = test system: HT29 colon
SNB-19 CNS = test system: SNB-19 CNS
SF-539 CNS = test system: SF-539 CNS
TK-10 renal = test system: TK-10 renal
UO-31 renal = test system: UO-31 renal
IGROV1 ovarian = test system: IGROV1 ovarian
ACHN renal = test system: ACHN renal
SW-620 colon = test system: SW-620 colon
SF-268 CNS = test system: SF-268 CNS
T-47D breast = test system: T-47D breast
A549 NSCLC = test system: A549 NSCLC
K-562 leukemia = test system: K-562 leukemia
HCC-2998 colon = test system: HCC-2998 colon
OVCAR-3 ovarian = test system: OVCAR-3 ovarian
NCI-H460 lung = test system: NCI-H460 lung
SK-MEL-5 melanoma = test system: SK-MEL-5 melanoma
CAKI-1 renal = test system: CAKI-1 renal
SK-MEL-28 melanoma = test system: SK-MEL-28 melanoma
NCI-H522 lung = test system: NCI-H522 lung
BT-549 breast = test system: BT-549 breast
U251 CNS = test system: U251 CNS
NCI/ADR-RES ovarian = test system: NCI/ADR-RES ovarian
UACC-62 melanoma = test system: UACC-62 melanoma
COLO 205 colon = test system: COLO 205 colon
RXF 393 renal = test system: RXF 393 renal
M14 melanoma = test system: M14 melanoma
SK-MEL-2 melanoma = test system: SK-MEL-2 melanoma
OVCAR-5 ovarian = test system: OVCAR-5 ovarian
OVCAR-4 ovarian = test system: OVCAR-4 ovarian
HOP-92 NSCLC = test system: HOP-92 NSCLC
A498 renal = test system: A498 renal

Question: `O=C(O)Cc1cccc2c1OC(c1ccccc1)C(Cl)(C(=O)c1ccccc1)C2=O` (stereo not drawn) was tested. Which TGI (SF-295 CNS) did it give?
Answer: The TGI was 66.3 µM.

Question: And the TGI (MDA-MB-231 breast)?
Answer: Its TGI is 58.8 µM.

Question: What about the TGI (CCRF-CEM leukemia) of the same compound?
Answer: The TGI was 18.2 µM.

Question: What about the TGI (HL-60(TB) leukemia) of the same compound?
Answer: Its TGI is 28 µM.

Question: And the TGI (HCT-116 colon)?
Answer: The TGI was 29.4 µM.

Question: What about the TGI (HOP-62 NSCLC) of the same compound?
Answer: The TGI was 43.6 µM.

Question: And the TGI (HS 578T breast)?
Answer: The TGI was 99.6 µM.

Question: What about the TGI (SNB-75 CNS) of the same compound?
Answer: Its TGI is 40.9 µM.

Question: What about the TGI (MDA-N) of the same compound?
Answer: The TGI was 29 µM.

Question: And the TGI (EKVX NSCLC)?
Answer: Its TGI is 50 µM.

Question: What about the TGI (MALME-3M melanoma) of the same compound?
Answer: The TGI was 34.9 µM.

Question: What about the TGI (KM12 colon) of the same compound?
Answer: The TGI was 50.6 µM.

Question: What about the TGI (MOLT-4 leukemia) of the same compound?
Answer: Its TGI is 62.3 µM.

Question: And the TGI (SN12C renal)?
Answer: Its TGI is 26.2 µM.

Question: What about the TGI (PC-3 prostate) of the same compound?
Answer: The TGI was 24.3 µM.

Question: And the TGI (SR leukemia)?
Answer: The TGI was 60.6 µM.

Question: What about the TGI (786-0 renal) of the same compound?
Answer: The TGI was 25.9 µM.

Question: And the TGI (DU-145 prostate)?
Answer: The TGI was 65.3 µM.

Question: What about the TGI (UACC-257 melanoma) of the same compound?
Answer: The TGI was 32 µM.

Question: What about the TGI (LOX IMVI melanoma) of the same compound?
Answer: The TGI was 29.2 µM.

Question: And the TGI (NCI-H226 lung)?
Answer: The TGI was 80.9 µM.

Question: What about the TGI (NCI-H23 lung) of the same compound?
Answer: The TGI was 33.1 µM.

Question: And the TGI (SK-OV-3 ovarian)?
Answer: The TGI was over 100 µM.

Question: What about the TGI (MDA-MB-435) of the same compound?
Answer: The TGI was 30.6 µM.

Question: And the TGI (RPMI-8226 leukemia)?
Answer: Its TGI is 47.4 µM.

Question: And the TGI (HCT-15 colon)?
Answer: Its TGI is 28.8 µM.

Question: And the TGI (OVCAR-8 ovarian)?
Answer: The TGI was 65.2 µM.

Question: What about the TGI (MCF7 breast) of the same compound?
Answer: The TGI was 24.5 µM.

Question: And the TGI (HT29 colon)?
Answer: Its TGI is 30 µM.

Question: And the TGI (SNB-19 CNS)?
Answer: Its TGI is over 100 µM.

Question: And the TGI (SF-539 CNS)?
Answer: Its TGI is 84.3 µM.

Question: What about the TGI (TK-10 renal) of the same compound?
Answer: The TGI was 37.2 µM.

Question: And the TGI (UO-31 renal)?
Answer: The TGI was 31.9 µM.

Question: What about the TGI (IGROV1 ovarian) of the same compound?
Answer: Its TGI is 28.9 µM.

Question: What about the TGI (ACHN renal) of the same compound?
Answer: Its TGI is 26.9 µM.

Question: And the TGI (SW-620 colon)?
Answer: The TGI was 21.2 µM.

Question: And the TGI (SF-268 CNS)?
Answer: The TGI was 76.1 µM.

Question: And the TGI (T-47D breast)?
Answer: The TGI was 40.2 µM.

Question: What about the TGI (A549 NSCLC) of the same compound?
Answer: Its TGI is 86 µM.

Question: What about the TGI (K-562 leukemia) of the same compound?
Answer: The TGI was 22.6 µM.

Question: And the TGI (HCC-2998 colon)?
Answer: The TGI was 26.1 µM.

Question: What about the TGI (OVCAR-3 ovarian) of the same compound?
Answer: The TGI was 31.9 µM.

Question: And the TGI (NCI-H460 lung)?
Answer: Its TGI is 55.8 µM.

Question: And the TGI (SK-MEL-5 melanoma)?
Answer: Its TGI is 28.6 µM.

Question: And the TGI (CAKI-1 renal)?
Answer: Its TGI is 31.6 µM.

Question: And the TGI (SK-MEL-28 melanoma)?
Answer: The TGI was 29.1 µM.

Question: What about the TGI (NCI-H522 lung) of the same compound?
Answer: The TGI was 29.6 µM.

Question: And the TGI (BT-549 breast)?
Answer: Its TGI is over 100 µM.

Question: And the TGI (U251 CNS)?
Answer: Its TGI is 30.9 µM.

Question: And the TGI (NCI/ADR-RES ovarian)?
Answer: Its TGI is over 100 µM.

Question: Which results are given for `Cc1nc(-c2ccccc2)c(-c2ccccc2)s1`?
Answer: TGI (SF-295 CNS): > 100 µM; TGI (MDA-MB-231 breast): 69.6 µM; TGI (CCRF-CEM leukemia): 40.3 µM; TGI (HL-60(TB) leukemia): 28.5 µM; TGI (UACC-62 melanoma): 56.8 µM; TGI (COLO 205 colon): 38.8 µM; TGI (HCT-116 colon): 68.8 µM; TGI (HOP-62 NSCLC): > 100 µM; TGI (HS 578T breast): 47.2 µM; TGI (SNB-75 CNS): > 100 µM; TGI (MDA-N): 35.1 µM; TGI (EKVX NSCLC): 69.4 µM; TGI (MALME-3M melanoma): 46.8 µM; TGI (KM12 colon): 71.2 µM; TGI (MOLT-4 leukemia): 38.8 µM; TGI (SN12C renal): > 100 µM; TGI (PC-3 prostate): 47.1 µM; TGI (786-0 renal): 50.8 µM; TGI (DU-145 prostate): > 100 µM; TGI (UACC-257 melanoma): 79.9 µM; TGI (LOX IMVI melanoma): 37.1 µM; TGI (NCI-H226 lung): 42.7 µM; TGI (NCI-H23 lung): 97.7 µM; TGI (SK-OV-3 ovarian): > 100 µM; TGI (MDA-MB-435): 69.1 µM; TGI (RPMI-8226 leukemia): 37.5 µM; TGI (RXF 393 renal): 49.8 µM; TGI (HCT-15 colon): 39 µM; TGI (OVCAR-8 ovarian): > 100 µM; TGI (M14 melanoma): 41.1 µM; TGI (MCF7 breast): 62.3 µM; TGI (HT29 colon): 41.7 µM; TGI (SK-MEL-2 melanoma): 32.8 µM; TGI (SNB-19 CNS): > 100 µM; TGI (SF-539 CNS): 71.4 µM; TGI (TK-10 renal): 52.8 µM; TGI (UO-31 renal): 54.1 µM; TGI (IGROV1 ovarian): 95.3 µM; TGI (OVCAR-5 ovarian): > 100 µM; TGI (OVCAR-4 ovarian): > 100 µM; TGI (ACHN renal): 97.9 µM; TGI (SW-620 colon): 39.6 µM; TGI (SF-268 CNS): 78.6 µM; TGI (T-47D breast): > 100 µM; TGI (A549 NSCLC): 89 µM; TGI (K-562 leukemia): 57.2 µM; TGI (HCC-2998 colon): 25.3 µM; TGI (OVCAR-3 ovarian): 87.4 µM; TGI (NCI-H460 lung): 42.2 µM; TGI (HOP-92 NSCLC): 83.6 µM; TGI (SK-MEL-5 melanoma): 27.5 µM; TGI (CAKI-1 renal): 62.3 µM; TGI (SK-MEL-28 melanoma): > 100 µM; TGI (NCI-H522 lung): 37.7 µM; TGI (BT-549 breast): 67.1 µM; TGI (U251 CNS): 29.5 µM; TGI (A498 renal): 64.4 µM; TGI (NCI/ADR-RES ovarian): 65.4 µM
